Source: patent US8461364B2, “Polymorphs of (S)-3-aminomethyl-7-(3-hydroxy-propoxy)-3H-benzo[C][1,2]oxaborol-1-OL” (GlaxoSmithKline LLC, priority 2008, dated 2013)

Assays:
Type in all cases: physicochemical
[1] = Stability study: storage of the polymorph under ambient conditions, XRPD afterwards
Text: The HCl1 polymorph, which was a hard bulky material, was placed in a closed Amber bottle and stored under ambient conditions. Four months later, the bottle was opened, and the hard bulky material was now a free flowing powder. An XRPD was taken of this free flowing powder.

[2] = Thermogravimetric analysis (TGA); details: ramp 15° C./minute
Description: The sample pan was tared, and sample of (S)-3-aminomethyl-7-(3-hydroxy-propoxy)-3H-benzo[c][1,2]oxaborol-1-ol polymorph form HCl4 prepared in Example 2, Method-B, was placed in the pan. The temperature was ramped at a rate of 15° C./minute.
The TGA thermogram of polymorph form HCl3 was acquired using a TA Instruments Q500 Thermogravimetric Analyzer. The sample pan was tared, and sample of (S)-3-aminomethyl-7-(3-hydroxy-propoxy)-3H-benzo[c][1,2]oxaborol-1-ol polymorph form HCl3 prepared as described above was placed in the pan. The temperature was ramped at a rate of 15° C./minute. A weight-loss of 4.7% between 27 and 104° C. was observed and is associated with water-loss due to dehydration.

[3] = Form screen with competitive ripening experiments (Raman/XPRD grouping); details: for relative polymorph stability (additional studies incl. single crystal form screen): 48 solvents/solvent mixtures, four crystallization modes, room temperature
Description: Alternative methods for preparing polymorph form HCl1, form HCl2, form HCl4, and form HCl5 involve the use of a form screen procedure. The input material for the screen was a nonsolvated form of the hydrochloride salt of (S)-3-aminomethyl-7-(3-hydroxy-propoxy)-3H-benzo[c][1,2]oxaborol-1-ol. […] Screening was conducted in a total of 48 solvents/solvent mixtures using four different crystallization modes listed below. The solvents included water, methanol, 1-propanol, nitromethane, acetonitrile, dimethylsulfoxide, acetone, 2-butanone, dichloromethane, methyl acetate, […], ethyl acetate, chlorobenzene, tetrahydrofuran, 1,4-dioxane, isopropyl ether, toluene, cyclohexane, heptanes, 1-butanol, 2-propanol, trifluoroethanol, dimethyl carbonate, t-butyl methyl ether, isopropyl acetate, ethanol, 1-methoxy-2-propanol, cyclohexanone, dimethyl formamide, 2-methoxyethyl ether, methanol:5 vol % H2O, acetonitrile:5 vol % H2O, acetone:5 vol % H2O, tetrahydrofuran:5 vol % H2O, 2-propanol:5 vol % H2O, methanol:10 vol % H2O, acetonitrile:10 vol % H2O, acetone:10 vol % H2O, tetrahydrofuran:10 vol % H2O, dioxane:10 vol % H2O, 2-propanol:10 vol % H2O, isopropanol+10% dimethylsulfoxide, acetonitrile+10% dimethylsulfoxide, and n-methylpyrrolidone.
Vapor diffusions were also conducted in selected solvents. The four crystallization modes used were: • temperature-cycled ripening of slurries • rapid cooling of room-temperature solutions • room-temperature evaporation of solutions • vapor diffusion of solvent/anti-solvent combinations Characterization:
All samples from the screen were isolated and analyzed by Raman spectroscopy. The samples were then grouped based on Raman spectral match. Representative samples from each of the groups were further analyzed by additional analytical techniques as appropriate (XPRD, DSC, TG-IR, PLM, etc.).
The temperature-cycle, rapid cool, and vapor diffusion samples formed a single group (Group A/Input) based on Raman and XPRD analyses. Most evaporative samples also produced Group A. However, five additional groups (Group B, Group C, Group D, Group E, and Group F) were produced from evaporative and evaporative scale-up experiments based on Raman analyses. These groups were selected for further analysis and/or scale-up.
Group B was an evaporative experiment from nitromethane produced in very low yields (<3 mg). This sample was analyzed by Raman, XPRD, and DSC. Insufficient sample was present for TG-IR (thermogravimetric-infrared spectroscopy). Six scale-up experiments were set up and each produced an amorphous or oily solid. […]
Group C was produced from two evaporative experiments from acetone and 2-butanone in very low yields (<1 mg). This sample was analyzed by Raman, and insufficient sample was present for further analysis. […]

[4] = Storage of Form HCl5 (sealed vial / room temperature)
Description: A solution of isopropanol containing 20% water by volume was added to a vial containing approximately 25 mg of polymorph form HCl4. The resulting mixture was stirred as the temperature was cycled between 0 and 40° C. over the course of 48 hours. The solution was isolated by filtration and evaporated to dryness. The freshly isolated product was verified to be Form HCl5.

[5] = Differential scanning calorimetry (DSC); details: ramp 15° C./minute, loose lid aluminum pan
Description: Instrument: TA Instruments Thermal Analysis System, Model DSC Q100
Key Operating Parameters:
Module—DSC Standard Cell FC
Method 1: Equilibrate at 25.00° C.
The DSC thermogram was acquired using a TA Instruments Q100 Differential Scanning calorimeter, as indicated above. A sample of (S)-3-aminomethyl-7-(3-hydroxy-propoxy)-3H-benzo[c][1,2]oxaborol-1-ol polymorph form HCl4 prepared in Example 2, Method B, was accurately weighed out directly into an aluminum DSC pan. The pan was sealed by applying pressure by hand and pushing each part of the pan together (also known as a loose lid configuration). The temperature was ramped at a rate of 15° C./minute. An endothermic transition having an onset of 178.1° C. was measured, and is associated with a decomposition event.

With `Cl.NC[C@H]1OB(O)c2c(OCCCO)cccc21` [polymorph form HCl1, (S)-3-aminomethyl-7-(3-hydroxy-propoxy)-3H-benzo[c][1,2]oxaborol-1-ol.HCl] the “solid form after storage (XRPD)” value ([1]; closed Amber bottle, ambient conditions, four months) was “converted into the HCl4 form during storage”.
In the case of `Cl.NC[C@H]1OB(O)c2c(OCCCO)cccc21` [polymorph form HCl3, (S)-3-aminomethyl-7-(3-hydroxy-propoxy)-3H-benzo[c][1,2]oxaborol-1-ol.HCl], the “weight-loss (water-loss due to dehydration)” value ([2]; between 27 and 104° C.) was 4.7%.
For `Cl.NC[C@H]1OB(O)c2c(OCCCO)cccc21` [polymorph form HCl5, (S)-3-aminomethyl-7-(3-hydroxy-propoxy)-3H-benzo[c][1,2]oxaborol-1-ol.HCl], the “stability of isolated form (Raman)” value ([3]; sample from very slow evaporation from acetone with 20% water) was “unstable and converted to Group E”, the form after storage ([4]; sealed vial, at least 7 days) was “conversion to Form HCl3” and the stability on storage ([4]; stored at room temperature) was “unstable when stored at room temperature and converts to Form HCl3”.
In the case of `Cl.NC[C@H]1OB(O)c2c(OCCCO)cccc21` [polymorph form HCl4, (S)-3-aminomethyl-7-(3-hydroxy-propoxy)-3H-benzo[c][1,2]oxaborol-1-ol.HCl], the “stepwise weight-loss (water-loss due to reversible chemical transformation)” value ([2]; between 162 and 214° C.) was 6.4%, the “temperature beyond which further decomposition is observed” value [2] was over 214 °C and the “onset of endothermic transition associated with a decomposition event” value [5] was 178.1 °C. The relative polymorph stability ([1]; from conversion during four months storage at ambient conditions) was “more stable polymorph than HCl1”, the “relative polymorph stability (additional studies incl. single crystal form screen)” value [3] was “most stable polymorph” and the “relative polymorph stability (additional studies incl. single crystal form screen)” value ([3]; listed as input material) was “most stable form at room temperature”. For the same compound, the “stability compared to other polymorphs of the HCl salt” value ([3]; physical and/or chemical stability, general statement) was “increased stability”.
